Data from BigSolDB 2.1.

SMILES: COCCOC(=O)C1=C(C)NC(C)=C(C(=O)OC(C)C)C1c1cccc([N+](=O)[O-])c1 (centres undefined)
- solubility (mole fraction) (in THF, 278.15 K): 0.0141
- solubility (mole fraction) (in THF, 283.15 K): 0.016
- solubility (mole fraction) (in THF, 288.15 K): 0.0181
- solubility (mole fraction) (in THF, 293.15 K): 0.0203
- solubility (mole fraction) (in THF, 298.15 K): 0.0229
- solubility (mole fraction) (in THF, 303.15 K): 0.0259
- solubility (mole fraction) (in THF, 308.15 K): 0.0291
- solubility (mole fraction) (in THF, 313.15 K): 0.0324
- solubility (mole fraction) (in THF, 318.15 K): 0.0366
- solubility (mole fraction) (in acetone, 278.15 K): 0.012
- solubility (mole fraction) (in acetone, 283.15 K): 0.0136
- solubility (mole fraction) (in acetone, 288.15 K): 0.0154
- solubility (mole fraction) (in acetone, 293.15 K): 0.0171
- solubility (mole fraction) (in acetone, 298.15 K): 0.0193
- solubility (mole fraction) (in acetone, 303.15 K): 0.0217
- solubility (mole fraction) (in acetone, 308.15 K): 0.0241
- solubility (mole fraction) (in acetone, 313.15 K): 0.027
- solubility (mole fraction) (in acetone, 318.15 K): 0.0295
- solubility (mole fraction) (in acetonitrile, 278.15 K): 0.00161
- solubility (mole fraction) (in acetonitrile, 283.15 K): 0.00191
- solubility (mole fraction) (in acetonitrile, 288.15 K): 0.00225
- solubility (mole fraction) (in acetonitrile, 293.15 K): 0.00267
- solubility (mole fraction) (in acetonitrile, 298.15 K): 0.00311
- solubility (mole fraction) (in acetonitrile, 303.15 K): 0.00365
- solubility (mole fraction) (in acetonitrile, 308.15 K): 0.00437
- solubility (mole fraction) (in acetonitrile, 313.15 K): 0.00503
- solubility (mole fraction) (in acetonitrile, 318.15 K): 0.00587
- solubility (mole fraction) (in cyclohexanone, 278.15 K): 0.0145
- solubility (mole fraction) (in cyclohexanone, 283.15 K): 0.0164
- solubility (mole fraction) (in cyclohexanone, 288.15 K): 0.0184
- solubility (mole fraction) (in cyclohexanone, 293.15 K): 0.021
- solubility (mole fraction) (in cyclohexanone, 298.15 K): 0.0239
- solubility (mole fraction) (in cyclohexanone, 303.15 K): 0.0266
- solubility (mole fraction) (in cyclohexanone, 308.15 K): 0.0297
- solubility (mole fraction) (in cyclohexanone, 313.15 K): 0.0334
- solubility (mole fraction) (in cyclohexanone, 318.15 K): 0.0375
- solubility (mole fraction) (in ethanol, 278.15 K): 0.014
- solubility (mole fraction) (in ethanol, 283.15 K): 0.0158
- solubility (mole fraction) (in ethanol, 288.15 K): 0.0176
- solubility (mole fraction) (in ethanol, 293.15 K): 0.0198
- solubility (mole fraction) (in ethanol, 298.15 K): 0.0221
- solubility (mole fraction) (in ethanol, 303.15 K): 0.0247
- solubility (mole fraction) (in ethanol, 308.15 K): 0.0272
- solubility (mole fraction) (in ethanol, 313.15 K): 0.0303
- solubility (mole fraction) (in ethanol, 318.15 K): 0.034
- solubility (mole fraction) (in ethyl acetate, 278.15 K): 0.00127
- solubility (mole fraction) (in ethyl acetate, 283.15 K): 0.00145
- solubility (mole fraction) (in ethyl acetate, 288.15 K): 0.0017
- solubility (mole fraction) (in ethyl acetate, 293.15 K): 0.00192
- solubility (mole fraction) (in ethyl acetate, 298.15 K): 0.00221
- solubility (mole fraction) (in ethyl acetate, 303.15 K): 0.00248
- solubility (mole fraction) (in ethyl acetate, 308.15 K): 0.0028
- solubility (mole fraction) (in ethyl acetate, 313.15 K): 0.0032
- solubility (mole fraction) (in ethyl acetate, 318.15 K): 0.00364
- solubility (mole fraction) (in ethyl formate, 278.15 K): 0.00152
- solubility (mole fraction) (in ethyl formate, 283.15 K): 0.0017
- solubility (mole fraction) (in ethyl formate, 288.15 K): 0.00192
- solubility (mole fraction) (in ethyl formate, 293.15 K): 0.00218
- solubility (mole fraction) (in ethyl formate, 298.15 K): 0.00247
- solubility (mole fraction) (in ethyl formate, 303.15 K): 0.00275
- solubility (mole fraction) (in ethyl formate, 308.15 K): 0.00305
- solubility (mole fraction) (in ethyl formate, 313.15 K): 0.00341
- solubility (mole fraction) (in ethyl formate, 318.15 K): 0.00381
- solubility (mole fraction) (in isobutanol, 278.15 K): 0.00706
- solubility (mole fraction) (in isobutanol, 283.15 K): 0.00811
- solubility (mole fraction) (in isobutanol, 288.15 K): 0.00923
- solubility (mole fraction) (in isobutanol, 293.15 K): 0.0107
- solubility (mole fraction) (in isobutanol, 298.15 K): 0.0122
- solubility (mole fraction) (in isobutanol, 303.15 K): 0.0137
- solubility (mole fraction) (in isobutanol, 308.15 K): 0.0156
- solubility (mole fraction) (in isobutanol, 313.15 K): 0.0179
- solubility (mole fraction) (in isobutanol, 318.15 K): 0.0201
- solubility (mole fraction) (in isopentanol, 278.15 K): 0.00609
- solubility (mole fraction) (in isopentanol, 283.15 K): 0.00711
- solubility (mole fraction) (in isopentanol, 288.15 K): 0.00815
- solubility (mole fraction) (in isopentanol, 293.15 K): 0.00953
- solubility (mole fraction) (in isopentanol, 298.15 K): 0.011
- solubility (mole fraction) (in isopentanol, 303.15 K): 0.0126
- solubility (mole fraction) (in isopentanol, 308.15 K): 0.0142
- solubility (mole fraction) (in isopentanol, 313.15 K): 0.0166
- solubility (mole fraction) (in isopentanol, 318.15 K): 0.0188
- solubility (mole fraction) (in isopropanol, 278.15 K): 0.0117
- solubility (mole fraction) (in isopropanol, 283.15 K): 0.0132
- solubility (mole fraction) (in isopropanol, 288.15 K): 0.0147
- solubility (mole fraction) (in isopropanol, 293.15 K): 0.0163
- solubility (mole fraction) (in isopropanol, 298.15 K): 0.0183
- solubility (mole fraction) (in isopropanol, 303.15 K): 0.0204
- solubility (mole fraction) (in isopropanol, 308.15 K): 0.0225
- solubility (mole fraction) (in isopropanol, 313.15 K): 0.0249
- solubility (mole fraction) (in isopropanol, 318.15 K): 0.0278
- solubility (mole fraction) (in methanol, 278.15 K): 0.0157
- solubility (mole fraction) (in methanol, 283.15 K): 0.0178
- solubility (mole fraction) (in methanol, 288.15 K): 0.0201
- solubility (mole fraction) (in methanol, 293.15 K): 0.0229
- solubility (mole fraction) (in methanol, 298.15 K): 0.0259
- solubility (mole fraction) (in methanol, 303.15 K): 0.0289
- solubility (mole fraction) (in methanol, 308.15 K): 0.0327
- solubility (mole fraction) (in methanol, 313.15 K): 0.0364
- solubility (mole fraction) (in methanol, 318.15 K): 0.0411
- solubility (mole fraction) (in methyl acetate, 278.15 K): 0.00456
- solubility (mole fraction) (in methyl acetate, 283.15 K): 0.00506
- solubility (mole fraction) (in methyl acetate, 288.15 K): 0.00573
- solubility (mole fraction) (in methyl acetate, 293.15 K): 0.00647
- solubility (mole fraction) (in methyl acetate, 298.15 K): 0.00718
- solubility (mole fraction) (in methyl acetate, 303.15 K): 0.00813
- solubility (mole fraction) (in methyl acetate, 308.15 K): 0.00898
- solubility (mole fraction) (in methyl acetate, 313.15 K): 0.00997
- solubility (mole fraction) (in methyl acetate, 318.15 K): 0.0112
- solubility (mole fraction) (in n-butanol, 278.15 K): 0.0106
- solubility (mole fraction) (in n-butanol, 283.15 K): 0.0117
- solubility (mole fraction) (in n-butanol, 288.15 K): 0.013
- solubility (mole fraction) (in n-butanol, 293.15 K): 0.0145
- solubility (mole fraction) (in n-butanol, 298.15 K): 0.0161
- solubility (mole fraction) (in n-butanol, 303.15 K): 0.0177
- solubility (mole fraction) (in n-butanol, 308.15 K): 0.0195
- solubility (mole fraction) (in n-butanol, 313.15 K): 0.0217
- solubility (mole fraction) (in n-butanol, 318.15 K): 0.0237
- solubility (mole fraction) (in n-pentanol, 278.15 K): 0.00802
- solubility (mole fraction) (in n-pentanol, 283.15 K): 0.00919
- solubility (mole fraction) (in n-pentanol, 288.15 K): 0.0103
- solubility (mole fraction) (in n-pentanol, 293.15 K): 0.0116
- solubility (mole fraction) (in n-pentanol, 298.15 K): 0.0131
- solubility (mole fraction) (in n-pentanol, 303.15 K): 0.0145
- solubility (mole fraction) (in n-pentanol, 308.15 K): 0.0162
- solubility (mole fraction) (in n-pentanol, 313.15 K): 0.018
- solubility (mole fraction) (in n-pentanol, 318.15 K): 0.0203
- solubility (mole fraction) (in n-propanol, 278.15 K): 0.011
- solubility (mole fraction) (in n-propanol, 283.15 K): 0.0123
- solubility (mole fraction) (in n-propanol, 288.15 K): 0.0139
- solubility (mole fraction) (in n-propanol, 293.15 K): 0.0155
- solubility (mole fraction) (in n-propanol, 298.15 K): 0.0173
- solubility (mole fraction) (in n-propanol, 303.15 K): 0.0195
- solubility (mole fraction) (in n-propanol, 308.15 K): 0.0216
- solubility (mole fraction) (in n-propanol, 313.15 K): 0.0241
- solubility (mole fraction) (in n-propanol, 318.15 K): 0.0269
- solubility (mole fraction) (in sec-butanol, 278.15 K): 0.00977
- solubility (mole fraction) (in sec-butanol, 283.15 K): 0.0111
- solubility (mole fraction) (in sec-butanol, 288.15 K): 0.0122
- solubility (mole fraction) (in sec-butanol, 293.15 K): 0.0134
- solubility (mole fraction) (in sec-butanol, 298.15 K): 0.0149
- solubility (mole fraction) (in sec-butanol, 303.15 K): 0.0167
- solubility (mole fraction) (in sec-butanol, 308.15 K): 0.0181
- solubility (mole fraction) (in sec-butanol, 313.15 K): 0.0198
- solubility (mole fraction) (in sec-butanol, 318.15 K): 0.022
